Earlier results as cited in publication PMC3157551 (Bioconjugate chemistry, 2011).

**Q.** Which “dissociation half-time of biotin from avidin” value does the source give for “avidin: avidin (Pierce-Thermo), 128 amino acid biotin-binding protein” here?
**A.** 89 days
